In patent US8372600B2, “Method and apparatus for measuring changes in cell volume” (priority 2004, dated 2013):

Legend:
astrocyte RVD = test: Astrocyte regulatory volume decrease (RVD) under a 188 mOsm hypotonic stimulus, measured as chamber resistance in the microfluidic chip; format: cell-based, rat; conditions: 188 mOsm stimulus; for Effect on RVD: FIG. 13
Excerpt: A microfluidic chip comprising a channel 15 μm deep and 1.5 mm wide was fabricated an connected to a fluid inlet and a fluid outlet. Along the length of the channel, there were two chambers (labeled 22 and 24 in FIGS. 1-3). Chamber 22 was configured for measuring cell volume and comprised a depth of 15 μm. Chamber 24 was deeper (55 μm) and served as a calibrating chamber for monitoring solution resistivity. Thin film platinum electrodes disposed in each chamber formed a four-point probe for measuring the chamber impedance. The chip was mounted on an acrylic platform to mate with external fluid connections. For testing adherent cells, the cells were cultured on glass coverslips and inverted on top of the chip so that the cells faced chamber 22. The coverslip was pressed against the chip with a clamp that applied a uniform force of approximately 50 N. For the electrical measurements, an active current source providing 1 μA of a 50 Hz sinusoid was applied to the two outer electrodes. Low frequency stimulation was utilized to minimize the dielectric loss in the silicon and to reduce the demands on the common mode rejection of the voltage amplifier. The voltage between the two inner electrodes was measured using a homemade instrumentation amplifier with input currents <1 pA to reduce polarization. A lock-in amplifier provided rectification and filtering.
To test the microfluidic chip performance with living cells, examination of the volume regulatory response of rat astrocytes was conducted. Solution osmolality was adjusted using mannitol, which allowed a constant ionic strength to be maintained. For the most critical tests, the solution conductivities were finely titrated to be equal at all osmotic pressures; the flow rate was constant at approximately 0.3 μl/s. FIGS. 10 and 11 show the astrocytes' response to perfusion with hypotonic and hypertonic stimuli. Hypotonic media caused a rapid (˜1 min) increase in volume followed by a slow (10 min) decrease—the well known regulatory volume decrease (RVD). RVD in astrocytes is due to the efflux of KCl and neutral organic osmolytes such as taurine. The time course and extent of RVD using 188, 220, and 273 mOsm solutions (FIG. 10) are in agreement with published data. RVD in other cell types was tested, including HEK and MDCK, and similar responses were identified. However, the RVI was only observed with mild stimuli (<345 mOsm) (FIG. 11). Similar results have been previously reported for astrocytes. The RVI under the above conditions is driven by Na^+, K^+, and Cl^− fluxes through a co-transporter.
A microfluidic chip was tested by screening peptides isolated from the tarantula Grammostola spatulata. The peptides were added to a hypotonic perfusate and their effects on astrocyte RVD were examined. […]

GH3 cells = conditions: previously known; cited from earlier work
[1] = test system: E. Coli strain (BL21(DE3)); test: Antibiotic sensitivity of suspended bacteria: growth monitored by chamber resistance; format: cell-based; conditions: 50 μg/ml and 10 μg/ml, 24° C., FIG. 14
Procedure: To test the microfluidic chip performance with suspended cells, the first chamber was perfused with an E. Coli suspension. The E. Coli strain (BL21(DE3)) harbors a plasmid that confers resistance to kanamycin. The cells were tested for antibiotic sensitivity by adding varying concentrations of carbenicillin—an antibiotic to which the bacteria are susceptible. After filling the chamber with bacteria, flow was stopped and the chamber resistance monitored. […] By adding specific ligands, such as antibodies, to the walls of the measuring chamber, specific microorganisms can be purified, concentrated and assayed in a single step. Since cellular organelles are similar in size to bacteria, the present invention can also be used to study the metabolism of mitochondria, chloroplasts, and vesicles or organelles such as the ER.

[2] = target: T1, P2X7 (purinergic ion channels) (Homo sapiens, UniProt Q99572); test: Volume change of HEK cells transfected with P2X7, measured in the chamber; format: cell-based
T1 construct: expressed in transfected cells; host or cells: HEK cells
T1 sequence (Q99572 1-595): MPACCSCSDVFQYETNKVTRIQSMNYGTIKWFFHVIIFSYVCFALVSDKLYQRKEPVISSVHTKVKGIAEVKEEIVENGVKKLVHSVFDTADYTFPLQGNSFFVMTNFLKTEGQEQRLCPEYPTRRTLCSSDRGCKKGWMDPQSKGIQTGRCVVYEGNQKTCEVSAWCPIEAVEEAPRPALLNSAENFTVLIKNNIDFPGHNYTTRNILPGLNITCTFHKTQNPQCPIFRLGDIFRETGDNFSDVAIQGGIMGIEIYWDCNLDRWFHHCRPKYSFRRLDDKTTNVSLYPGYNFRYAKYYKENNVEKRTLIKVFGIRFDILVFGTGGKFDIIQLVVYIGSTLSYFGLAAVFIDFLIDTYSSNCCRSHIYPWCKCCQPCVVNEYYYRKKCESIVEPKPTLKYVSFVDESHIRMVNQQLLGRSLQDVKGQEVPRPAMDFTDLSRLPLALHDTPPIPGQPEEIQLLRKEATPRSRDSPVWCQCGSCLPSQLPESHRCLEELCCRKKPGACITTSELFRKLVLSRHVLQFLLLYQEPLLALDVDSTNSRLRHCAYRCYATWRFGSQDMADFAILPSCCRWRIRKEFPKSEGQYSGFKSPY
Excerpt: The chamber is sensitive to more than toxic or anisotonic media. […] Thus, the device can serve as a coarse grained substitute for common (but slow) electrophysiologically assays.

GsMTx1
Reduction of RVD (astrocyte RVD; 100 pM peptide in hypotonic perfusate): about 50%
Effect on RVD (astrocyte RVD; 1 nM peptide in hypotonic perfusate): completely blocked
Effect on RVD (astrocyte RVD; 10 nM peptide in hypotonic perfusate): completely blocked
Effect on RVD (astrocyte RVD; 1 μM peptide in hypotonic perfusate): completely blocked
Effect on swelling-induced Ca2+ uptake (GH3 cells): block

CC1(C)S[C@@H]2[C@H](NC(=O)C(C(=O)O)c3ccccc3)C(=O)N2[C@H]1C(=O)O (some centres unmarked) [Carbenicillin, carbenicillin]
Time until growth was visibly slowed [1]: ≤ 15 min
Effect on bacterial growth ([1]; concentration dependent): visibly slowed growth

Nc1ncnc2c1ncn2[C@@H]1O[C@H](COP(=O)(O)OP(=O)(O)OP(=O)(O)O)[C@@H](O)[C@H]1O [ATP]
Cell volume response following activation [2]: reversible volume changes
